# Columns and labels:
# mouse melanoma B16-F10 [1] = assay: Blood-borne lung metastasis model, mouse melanoma tail vein injection (LPS); type: in vivo; conditions: for LPS-induced lung metastasis of tumor cells (nodules): 30 mg/kg-day oral from 4 days before LPS, LPS 1 mg/kg tail vein 4 to 5 hours before B16-F10 injection, 14 days after tumor cell injection, C57BL6 mice
# Method: Lung Metastasis Suppressing Effect of Medicament in Blood-Borne Metastasis Model Established by Injection of Mouse Melanoma to Mouse Tail Vein (LPS)
# Eight-week-old male C57BL6 mice (purchased from Japan SLC, Inc.) were used. Lipopolysaccharide (LPS) in an amount of 1 mg/kg was injected to the tail vein of each mouse, and mouse melanoma B16-F10 was injected to the tail vein 4 to 5 hours later. At this time, mouse melanoma was injected into the tail vein on the different side from the tail vein to which LPS was injected. Mouse melanoma B16-F10 was purchased from ATCC, and cultured in DMEM (Life Technologies Corp.) containing 10% FCS under 5% CO2 at 37° C. The cells in a semiconfluent state were treated with EDTA-trypsin (a 0.01 to 0.125% solution) and then centrifuged. As an angiotensin type 2 receptor agonist, Compounds A to E were used. The cells were suspended in serum free DMEM so as to be 3×10^6 cells/mL for Compound A administration group, and 2×10^6 cells/mL for Compound B to E administration groups. The melanoma cell suspension ([…]) at a density of 3×10^5 cells for Compound A administration group or at a density of […] for Compound B to E administration groups was injected to the tail vein of the mice.
# To the angiotensin type 2 receptor agonist group, a 0.5% carboxymethylcellulose aqueous solution (0.2 mg/mL) prepared so as to contain 30 mg/kg-day of the agent (each of Compounds A to E) was orally given from 4 days before the start of the LPS administration to the end of the experiment (14 days after the injection of melanoma cells) in a continuous manner. To the control group, LPS was not injected, and only a 0.5% carboxymethylcellulose aqueous solution not containing the agent (any of Compounds A to E) was orally given for the experiment.
# In addition, for the purpose of comparison, an experiment in which LPS was not injected and Compound A was orally administered and an experiment in which LPS was injected and the 0.5% carboxymethylcellulose aqueous solution not containing the agent (any of Compounds A to E) was orally given were performed. […]
# mouse melanoma B16-F10 [2] = assay: Blood-borne lung metastasis model, mouse melanoma tail vein injection (CDDP); type: in vivo
# Method: Lung Metastasis Suppressing Effect of Medicament in Blood-Borne Metastasis Model Established by Injection of Mouse Melanoma to Mouse Tail Vein (CDDP)
# Eight-week-old male C57BL6 mice (purchased from Japan SLC, Inc.) were used. Mouse melanoma B16-F10 was purchased from ATCC, and cultured in Dulbecco's Modified Eagle Medium (DMEM) (Life Technologies Corp.) containing 10% fetal calf serum (FCS) under 5% CO2 at 37° C. The cells in a semiconfluent state were treated with EDTA-trypsin (a 0.01 to 0.125% solution), centrifuged, and then suspended in serum free DMEM so as to be 3×10^6 cells/mL. The melanoma cell suspension (100 μL/mouse, 3×10^5 cells) was injected to the tail vein of the mice.
# As pretreatment, 2.5 mg/kg of cisplatin (CDDP) was injected to the tail vein of the mice 2 days before the injection of the melanoma cells into the tail vein.
# As an angiotensin type 2 receptor agonist, Compound A was used.
# To the angiotensin type 2 receptor agonist group, a 0.5% carboxymethylcellulose aqueous solution prepared so as to contain 30 mg/kg of Compound A was orally given from 4 days before the start of the CDDP administration to the end of the experiment (14 days after the injection of melanoma cells) in a continuous manner.
# To the control group, CDDP was not injected, and only a 0.5% carboxymethylcellulose aqueous solution not containing the agent was orally given for the experiment.
# In addition, for the purpose of comparison, an experiment in which CDDP was not injected and Compound A was orally administered and an experiment in which CDDP was injected and the 0.5% carboxymethylcellulose aqueous solution not containing the agent (Compound A) was orally given were performed.
# The number of animals in each group was n=5.
# The lung metastasis of the tumor cells 14 days after the tumor cell injection was observed. […]
SMILES,LPS-induced lung metastasis of tumor cells (nodules) (mouse melanoma B16-F10 [1]),"lung metastasis of tumor cells without LPS administration (mouse melanoma B16-F10 [1]; 30 mg/kg-day oral, no LPS, 14 days after B16-F10 tail vein injection)","CDDP-induced exacerbation of the lung metastasis of tumor cells (nodules) (mouse melanoma B16-F10 [2]; 30 mg/kg oral from 4 days before CDDP, CDDP 2.5 mg/kg tail vein 2 days before B16-F10 injection, 14 days after tumor cell injection, C57BL6 mice)","lung metastasis of tumor cells without CDDP administration (mouse melanoma B16-F10 [2]; 30 mg/kg oral, no CDDP, 14 days after B16-F10 tail vein injection, C57BL6 mice)","effect of cisplatin (CDDP) administration on lung metastasis of tumor cells (mouse melanoma B16-F10 [2]; CDDP 2.5 mg/kg tail vein 2 days before B16-F10 injection, 14 days after tumor cell injection)"
"CCN(CC)C(=O)[C@H](Cc1ccc(NC(=O)c2ccccc2)cc1)C(=O)NS(=O)(=O)c1ccc2ccccc2c1 [Compound A, (2S)-2-[4-(benzoylamino)benzyl]-N,N-diethyl-N′-(2-naphthylsulfonyl)malonamide]",significantly suppressed the lung metastasis of tumor cells,suppresses the lung metastasis of tumor cells,significantly suppressed the CDDP-induced exacerbation of the lung metastasis,capable of suppressing the lung metastasis of tumor cells,–
"CCN(CC)C(=O)[C@H](Cc1ccc(NC(=O)c2ccc(Cl)cc2N)cc1)C(=O)NS(=O)(=O)c1ccc2ccccc2c1 [Compound E, (2S)-2-{4-[(2-amino-4-chlorobenzoyl)amino]benzyl}-N,N-diethyl-N′-(2-naphthylsulfonyl)malonamide]",significantly suppressed the lung metastasis of tumor cells,–,–,–,–
"N.N.[Cl][Pt][Cl] [cisplatin (CDDP), cisplatin, reference compound]",–,–,–,–,augmented the lung metastasis of tumor cells
